Experimental data reported in ChEMBL document CHEMBL1124903 (J Med Chem, 1990).

Assay: Half life (T 1/2) estimated in the absence of light, in 50 mM Tris-HCl 1 mM EDTA (pH 7.4) buffer.
Format: ADME
Conditions: 50 mM Tris-HCl 1 mM EDTA buffer

CC(c1ccc(Cl)cc1)N1CCC2(CC1)C(=O)NCN2c1ccc(N=[N+]=[N-])cc1 (centres undefined)
half-life: > 24 h

CN(c1ccc(N=[N+]=[N-])cc1)C1CCC2(O)C3Cc4ccc(O)c5c4C2(CCN3CC2CC2)C1O5 (centres undefined)
half-life: > 24 h

CC(c1ccc(Cl)cc1)N1CCC2(CC1)C(=O)NCN2c1ccc([N+]#N)cc1 (centres undefined)
half-life: 5 h

CN(c1ccc([N+]#N)cc1)C1CCC2(O)C3Cc4ccc(O)c5c4C2(CCN3CC2CC2)C1O5 (centres undefined) [NALTREXONEDIAZONIUM]
half-life: 5 h
